Results taken from patent US20230393170A1, “IN SITU MECHANICAL CHARACTERIZATION OF A SAMPLE STRAIN” (BOARD OF REGENTS OF THE UNIVERSITY OF NEBRASKA, priority 2020, published 2023).
Entries after “also recorded” stand apart in the source; their conditions may differ.

Tested on: A431 cell pair cell-cell junction
Test: Displacement-controlled stretch test of a single cell pair treated with contractility modulators
Format: cell-based
Excerpt: To apply strain to the cell-cell junction, the test platform was placed with deposited cells under the AFM integrated with an inverted microscope. An AFM probe with a through-hole drilled at the front end using a focused ion beam (FIB) is positioned above the micropillar on Island 2 and then lowered to capture it within the through-hole. With this, displacement was applied and displacement rates were tried to investigate the mechanical behavior of the cell-cell junction with obtained stress-strain curves (as discussed below with reference to FIG. 12).
The cell pair was treated with cellular contractility modulators, RhoA Activator I. CN01, and myosin II inhibitor: blebbistatin (Bleb), to examine the impact of actomyosin activity on the mechanical behavior of the cell pair under mechanical stress. Stress-strain curves collected at 0.5% s^−1 strain rate show a clear contrast between samples treated with CN01, Bleb, and DMSO control. […] The stress-strain curves were then analyzed using the constitutive model. […] The increase (decrease) in both η and E2 by CN01 (Bleb) is consistent with the enhanced (reduced) stress fiber formation.
Zyxin staining was performed to visualize the focal adhesion points between cells and the structure. After fixing the cells (see above), the anti-zyxin antibody (Sigma) with a ratio of 1:250 with PBS was added to the sample and refrigerated for 24 hours. The solution was then removed, and the sample was washed with PBS. PBS was replaced by Goat anti-Rabbit IgG (H+L), Superclonal™ Recombinant Secondary Antibody, Alexa Fluor 647 (Thermofisher) and incubated for 1 hour at 37° C. Finally, the sample was washed with PBS and the actin and nuclei staining protocol were performed. Pharmacological treatments modulating cell contractility included 3 μM blebbistatin (Bleb) (Sigma-Aldrich) for 2 h and 1 unit/ml Rho Activator I (CN01; Cytoskeleton, Inc., Denver, CO) for 30 min.
A modified version of MATLAB digital image correlation (DIC) was used to analyze the frames from the stretch test. The first frame was considered as the reference and the rest of the frames were compared to the reference frame to calculate the displacement of each island. A region of interest with markers within the region was defined for both islands. Then, the MATLAB code calculated the markers' new coordinates with respect to the first frame, from which the displacement of the islands was calculated. The force is defined by the Island 1 displacement multiplied by its stiffness, and the stress is acquired by dividing the force by the junction cross-section (approximately 120 μm^2). The strain is then calculated as the difference between the islands' displacements divided by the cell-cell junction's initial length (approximately 20 μm).
Each stretch test was recorded with a screen recorder software (Camtasia) and the movie was divided into frames that were analyzed with a customized DIC-based program to calculate each island's movement. In this method, a region of interest is defined and, within this region, a few markers are placed. The higher the number of markers, the better the resolution of the calculated displacement is. Then, when the coordinates of these markers change, a corresponding red marker appears (FIGS. 12A and 12B). In the first frame, both initial and displaced positions of markers are completely overlapped so just red markers are shown. […] The strain is calculated by dividing the difference of both islands' displacements by the initial length […]. […]

[1] = 0.5% s^-1 strain rate, fit of stress-strain curves

Cc1ccc2c(c1)C(=O)C1(O)CCN(c3ccccc3)C1=N2 (centres unmarked) [Bleb, blebbistatin] was tested, and the “rupture of the cell-cell adhesion junction” value (0.5% s^-1 (100 nm/s) strain rate) was “ruptured at the initial stages”, the “overall stress level compared with controls” value (0.5% s^-1 strain rate (100 nm/s), CN01 1 unit/ml 30 min, Bleb 3 μM 2 h, vs DMSO control) was “reduces the stress accumulation; also recorded: stress level was low compared to other conditions” and the “Membrane stiffness, E1 (MSLS model fit)” value [1] was “stays the same for all conditions”. For the same compound, the “elastic moduli of the intracellular components, E2 (MSLS model fit)” value [1] was “reduces them” and the “viscosity, η (MSLS model fit)” value [1] was “reduces them”.
